Measured values taken from patent publication US11560545B2, “Polymeric carriers and methods” (The Brigham and Women's Hospital, Inc., priority 2017, dated 2023).

How the values were obtained:
3T3 fibroblasts = assay: in vitro cytotoxicity by MTT assay; type: cell-based
[1] = tested on: human mesenchymal stem cells (hMSC); assay: DTT / digestion solution cytotoxicity to hMSC; type: cell-based; conditions: short exposure (<30 minutes), high concentration of DTT (50 mM)
Procedure: Also, the DTT cytotoxicity to human mesenchymal stem cells (hMSC) was studied, as depicted at FIG. 3C. […], hMSC presented low viability—80% to 85%—at the high concentration of DTT (50 mM).

hMSCs = assay: cell viability after full digestion with digestion agents; conditions: 0.015 M sodium citrate solutions
Procedure: The cell viability was calculated after full digestion due to the concern of potential cytotoxicity from the digestion agents.

SMILES	cytotoxicity (MTT) (3T3 fibroblasts; 50 mM DTT solution)	cytotoxicity (MTT) (3T3 fibroblasts; low concentration 1 mM, compared to DPBS)	cytotoxicity (MTT) (3T3 fibroblasts; working concentration 10 mM, compared to DPBS)	hMSC tolerance [1]	cytotoxicity to hMSCs (hMSCs)
O[C@H](CS)[C@H](O)CS (racemic) [DTT, dithiothreitol]	significant cytotoxicity	no significant cytotoxicity	no significant cytotoxicity	tolerant	
O=C([O-])CC(O)(CC(=O)[O-])C(=O)[O-].[Na+].[Na+].[Na+] [sodium citrate]					certain level of cytotoxicity
